Consider four molecules from ChEMBL document CHEMBL2069174, “Novel 2-methoxyacylhydrazones as potent, selective PDE10A inhibitors with activity in animal models of schizophrenia” (Bioorg Med Chem Lett, 2012).

One series relates to Mus musculus. Nature of the series: Oral bioavailability in mouse. The settings on record: in vivo. It counts as ADME, organism-based.
Series [1] in a line: Metabolic stability of the compound in simulated gastric fluid. It counts as physicochemical. The conditions noted are these: simulated gi fluid.
For the next series, the system named is Nucleic Acid. Nature of the series: (§1) Ratio of drug level in brain to plasma in mouse. It counts as ADME, organism-based. The conditions noted are these: brain.
Series [2] is described as follows: as §1. The series is classed as ADME, organism-based. The conditions noted are these: brain and plasma, read-out: BPR.

`COc1cc(/C=N/NC(=O)C(OC)c2ccc(N3CCOCC3)cc2)cc(OC)c1Br` (racemic): the F in the series with Mus musculus is given as 63%. For the same molecule, the Stability entry in series [1] is given as “Stable”. The BPR with Nucleic Acid is listed as 0.37.

The molecule `COc1cc(/C=N/NC(=O)C(OC)c2ccc(-n3cccn3)cc2)cc(OC)c1Br` (racemic) registered a F in the series on Mus musculus of 48%. Further, the BPR in the series on Nucleic Acid is 0.39.

`COc1cc(/C=N/NC(=O)C(OC)c2ccc(N3CCOCC3)cc2)cc(OC)c1Br` (single isomer, unassigned; enantiomer 1) yielded a F in the series on Mus musculus of 91%. In series [2], the Kp was found to be 0.27.

`COc1cc(/C=N/NC(=O)C(OC)c2ccc(-n3cccn3)cc2)cc(OC)c1Br` (stereo in doubt; 61) returned a F in the series on Mus musculus of 92%. Also, in series [1], the Stability entry is given as “Stable”. Besides, the BPR in the series on Nucleic Acid was 0.12.
